Reference: PMC4594923, “Food Polyphenols Fail to Cause a Biologically Relevant Reduction of COX-2 Activity” (PLoS ONE, 2015)
“Also recorded” adds a separate entry of the source. Marks after values point to notes of the source that are not given here.

Legend:
ovine recombinant COX–1 = biological target: T1, ovine recombinant COX–1 (Ovis aries, UniProt P05979); assay: cell-free COX–1 enzyme assay (PGE2 formation, LC-MS); type: biochemical; design: purchased Cayman Chemicals/ Biomol, Hamburg, Germany
T1 sequence (P05979 25-600): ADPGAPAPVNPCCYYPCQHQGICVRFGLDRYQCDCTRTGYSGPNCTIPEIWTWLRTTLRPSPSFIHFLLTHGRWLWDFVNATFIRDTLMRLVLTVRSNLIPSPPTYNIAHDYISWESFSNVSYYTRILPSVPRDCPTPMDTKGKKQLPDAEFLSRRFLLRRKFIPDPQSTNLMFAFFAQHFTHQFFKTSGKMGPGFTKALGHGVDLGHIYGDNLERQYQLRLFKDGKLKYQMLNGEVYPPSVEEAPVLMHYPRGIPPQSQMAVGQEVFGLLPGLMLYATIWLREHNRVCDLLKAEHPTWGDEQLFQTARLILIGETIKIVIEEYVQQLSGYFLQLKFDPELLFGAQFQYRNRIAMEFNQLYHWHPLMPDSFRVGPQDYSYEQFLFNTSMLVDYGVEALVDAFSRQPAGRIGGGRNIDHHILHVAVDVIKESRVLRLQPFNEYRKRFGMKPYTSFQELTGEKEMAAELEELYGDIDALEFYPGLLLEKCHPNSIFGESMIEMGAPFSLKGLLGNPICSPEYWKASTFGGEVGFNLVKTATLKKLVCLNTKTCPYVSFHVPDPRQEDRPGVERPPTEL
Experimental: The in vitro assays were performed as described [6, 16, 18] and COX metabolites were quantified by LC-MS [18].
Primary human monocytes were freshly isolated from human blood. Blood was collected from healthy human subjects after written informed consent was obtained. […] After 24 h, the supernatant was sampled for LC-MS and cells were collected for the COX–2 expression analysis by Western Blotting.
(§1) GraphPad Prism 5.0 (GraphPad Software, San Diego, USA) was used for data analysis, the fitting of dose response curves and calculation of the IC50 values. Statistical differences were determined by Dunnetts test (LPS vs. other groups).

[1] = tested on: arachidonic acid (AA) cascade; assay: kidney tissue oxylipin/PG levels in LPS induced sepsis in mice;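 note: male C57BL/6N mice challenged with LPS, kidney taken 24 h later, oxylipins quantified by LC-MS after solid-phase extraction of tissue homogenate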
Text: Twelve week old male C57BL/6N mice (Charles River, Sulzfeld, Germany) were used for all experiments. C57BL/6 male mice (H2^b, 11–13 weeks of age) were obtained from Charles River (Sulzfeld, Germany). Animals were cared for in accordance with the institution’s guidelines for experimental animals and with the guidelines of the American Physiological Society. […] Mice were monitored closely and if they appeared compromised (i.e. inactivity, no intake of food or water) after compound or LPS injection the experiment was terminated.
Oxylipin levels were analyzed in plasma and tissues by LC-MS following SPE extraction of 200 μl plasma or tissue homogenate (50 mg) on Chromabond C18 ec cartridges (Machery-Nagel, Düren, Germany) [19].
as §1

[2] = kidney tissue 24 h after LPS treatment, LPS +, mean
[3] = kidney tissue 24 h after LPS treatment, LPS +, mean, < = below LOQ
[4] = mice, compound i. p. 100 mg/kg bw 2 h before LPS, 24 h after LPS, vs. LPS group

SMILES: Oc1ccc(/C=C/c2cc(O)cc3c2[C@@H](c2cc(O)cc(O)c2)[C@H](c2ccc(O)cc2)O3)cc1 [ε-Viniferin, ε-viniferin]
- effect on COX–1 dependent PGE2 formation, cell-free enzyme assay (ovine recombinant COX–1): dose-dependently decreased; also recorded: inhibited
- IC50 (ovine recombinant COX–1; calculated based on PGE2, n = 3, read-out: IC50 (95% CI), COX–1 enzyme assay): 1600 nM
- 1a,1b-dihomo-PGF2α [1, 2]: 3.2^† nM
- 4,5-DiHDPE [1, 2]: 26^‡ nM
- 4-HDHA [1, 2]: 22 nM
- 5(6)-EpETrE [1, 2]: 70 nM
- 5,6-DiHETrE [1, 2]: 2.2^‡ nM
- 5-HEPE [1, 2]: 1.1 nM
- 5-HETE [1, 2]: 13 nM
- 5-oxo-ETE [1, 2]: 24 nM
- 6-keto-PGF1α [1, 2]: 108^‡ nM
- 7,8-DiHDPE [1, 2]: 1.9 nM
- 7-HDHA [1, 2]: 2.7 nM
- 8(9)-EpETrE [1, 2]: 15 nM
- 8,9-DiHETrE [1, 2]: 2.2^* nM
- 8-HDHA [1, 2]: 18^* nM
- 8-HETE [1, 2]: 4.4 nM
- 8-iPF2a [1, 2]: 2.7^† nM
- 9(10)-EpODE [1, 2]: 9.9 nM
- 9(10)-EpOME [1, 2]: 110 nM
- 9(10)-Epoxystearic acid [1, 2]: 64 nM
- 9,10,13-TriHOME [1, 2]: 10 nM
- 9,10-DiHODE [1, 2]: 2.0 nM
- 9,10-DiHOME [1, 2]: 27 nM
- 9,10-Dihydroxystearic acid [1, 2]: 87 nM
- 9,12,13-TriHOME [1, 2]: 69^‡ nM
- 9-HETE [1, 2]: 3.6 nM
- 9-HODE [1, 2]: 380^† nM
- 9-HOTrE [1, 2]: 5.8 nM
- 9-oxo-ODE [1, 2]: 73 nM
- 10(11)-EpDPE [1, 2]: 27 nM
- 10,11-DiHDPE [1, 2]: 2.3 nM
- 10-HDHA [1, 2]: 3.6 nM
- 11(12)-EpETE [1, 2]: 1.4 nM
- 11(12)-EpETrE [1, 2]: 35 nM
- 11,12-DiHETrE [1, 2]: 1.8^‡ nM
- 11-HDHA [1, 2]: 5.4 nM
- 11-HETE [1, 2]: 22^† nM
- 12(13)-EpODE [1, 2]: 4.3 nM
- 12(13)-EpOME [1, 2]: 80 nM
- 12,13-DiHOME [1, 2]: 32^† nM
- 12-HEPE [1, 2]: 5.0 nM
- 12-HETE [1, 2]: 47 nM
- 13(14)-EpDPE [1, 2]: 22 nM
- 13,14-DiHDPE [1, 2]: 1.4 nM
- 13,14-dihydro-15-keto-PGF2α [1, 2]: 4.6^‡ nM
- 13-HDHA [1, 2]: 7.7 nM
- 13-HODE [1, 2]: 310^† nM
- 13-HOTrE [1, 2]: 6.0 nM
- 13-oxo-ODE [1, 2]: 8.3 nM
- 14(15)-EpETE [1, 2]: 1.7 nM
- 14(15)-EpETrE [1, 2]: 29 nM
- 14,15-DiHETE [1, 2]: 0.38^‡ nM
- 14,15-DiHETrE [1, 2]: 3.4^‡ nM
- 14-HDHA [1, 2]: 20 nM
- 15(16)-EpODE [1, 2]: 22 nM
- 15(S)-HETrE [1, 2]: 8.0^‡ nM
- 15,16-DiHODE [1, 2]: 22 nM
- 15-HETE [1, 2]: 30^* nM
- 15-oxo-ETE [1, 2]: 9.3 nM
- 16(17)-EpDPE [1, 2]: 21 nM
- 16,17-DiHDPE [1, 2]: 2.7^‡ nM
- 16-HDHA [1, 2]: 4.9^* nM
- 17(18)-EpETE [1, 2]: 2.4 nM
- 17,18-DiHETE [1, 2]: 1.8^‡ nM
- 17-HDHA [1, 2]: 15 nM
- 18-HEPE [1, 2]: 1.5 nM
- 19(20)-EpDPE [1, 2]: 36 nM
- 19,20-DiHDPE [1, 2]: 31^‡ nM
- 20-HDHA [1, 2]: 17 nM
- 20-HEPE [1, 2]: 11 nM
- EKODE [1, 2]: 92^‡ nM
- PGD2 [1, 2]: 19^† nM
- PGE1 [1, 2]: 8.3 nM
- PGE2 [1, 2]: 110 nM
- PGF1α [1, 2]: 7.7^‡ nM
- PGF2α [1, 2]: 63^‡ nM
- TXB2 [1, 2]: 4.9^‡ nM
- 5,6-DiHETE [1, 3]: < 0.25 nM
- 5-iPF2α [1, 3]: 1.5^‡ nM
- 8(9)-EpETE [1, 3]: 1.2 nM
- 12,13-DiHODE [1, 3]: < 2.0 nM
- 13,14-dihydro-15-keto-PGE1 [1, 3]: 0.49 nM
- 20-HETE [1, 3]: 3.6^* nM
- PGD1 [1, 3]: 0.84^† nM
- PGF2α ([1]; kidney tissue 24 h after LPS treatment, LPS +, mean, second listing of PGF2α (r9)): 63 nM
- kidney 6-keto-PGF1α level [1, 4]: elevated
- kidney 8-iPGF2α level [1, 4]: elevated
- kidney 13,14-dihydro-15-keto-PGE1 level [1, 4]: elevated
